Source: US20100190729A1 (CHUNG-ANG University Industry Academic Cooperation …, priority 2009, published 2010)

Assays:
[1] = tested on: IL-10; experiment: IL-10 mRNA expression in anti-CD3 activated splenocytes, RT-PCR; assay type: cell-based, mouse
Protocol: (§1) FIG. 9 represents RT-PCR results showing an inhibitory effect of hirsutanonol on Th1 and Th2 cytokine expression. Murine splenocytes were cultured on 12 well plate (RT-PCR) at a concentration of 1.5×10^4 cells per well. For T cell activation, CsA (50 nM) and hirsutanonol were added into a well added with anti-CD3 mAb and all of other wells. Cells were incubated for 24 hrs and then […] was carried out. GAPDH was served as an internal control.
(§2) The mRNA expression levels of Th1 cytokines, IL-2 and Th2 cytokines, IL-4, IL-10 and IL-13 were examined. T cells activated by anti-CD3 mAb among spleen lymphocytes were used as a target. The primer sequences used to analyze IL-2, IL-4, IL-10 and IL-13 mRNA are as follows.

[2] = tested on: IL-4; experiment: IL-4 mRNA expression in anti-CD3 activated splenocytes, RT-PCR; assay type: cell-based, mouse
Protocol: as §1, §2

[3] = tested on: IL-2; experiment: IL-2 expression in anti-CD3 activated murine splenocytes, ELISA; assay type: cell-based, mouse
Protocol: FIG. 8 is the experimental results showing the inhibitory effect of hirsutanonol on IL-2 expression. Murine splenocytes were grown on 96 well plate at a concentration of 1.5×10^4 cells per well. For T cell activation, CsA (50 nM) and hirsutanonol were added into a well added with anti-CD3 mAb and into all of other wells. Cells were incubated for 72 hrs and then ELISA was carried out using the supernatants collected from each well.
IL-2 is a cytokine expressed in Th1 cells and plays a crucial role in the proliferation of T cells. Hirsutanonol was added to splenic T cells which have been primarily cultured from murine splenocytes and pre-activated by anti-CD3 mAb. Inhibitory activity of hirsutanonol on IL-2 expression was measured using ELISA. Cyclosporine A (CsA) with strong inhibitory activity against IL-2 secretion was served as a positive control.

[4] = tested on: CD25/CD69; experiment: T-cell early activation markers, flow cytometry; assay type: cell-based, mouse; conditions: 100 μg/ml, splenocytes stimulated by anti-CD3 mAb, 24 hrs
Protocol: FIG. 12 is a flow cytometry result analyzing the changes of CD25/CD69 expression induced by hirsutanonol. Splenocytes were stimulated by anti-CD3 mAb in the presence or absence of hirsutanonol. Each hirsutanonol and CsA was treated at concentrations of 50 and 100 μg/ml, and 50 nM. After incubation for 24 hrs, the percentage of cells expressing CD25 and CD69 were measured using flow cytometry.
CD25 and CD69 expression levels were comparatively measured in the group of basal, CsA and hirsutanonol (50, 100 μg/ml) respectively. CsA was used as a control group due to its strong inhibitory activity on CD25 and CD69 expression. The results were represented in FIG. 12.

[5] = tested on: Jurkat cells; experiment: Inhibition of cell proliferation, CCK assay (WST-8); assay type: cell-based, human
Protocol: FIG. 7 is a graph measuring the inhibitory effect of hirsutanonol on cell proliferation. Jurat cells were seeded into a 96 well plate at a concentration of 1×10^4 cells per well, and cultured in 2% FBS DMEM with or without hirsutanonol. Cell numbers were counted in triplicate wells by measuring the absorbance of reduced WST-8 (Dojindo, Japan) at 450 nm.
Hirsutanonol activity to inhibit cell proliferation of Jurkat cells was tested using CCK assay. […] Therefore, about 50 μg/ml of hirsutanonol was used in experiments to assess in vitro activity of hirsutanonol.

[6] = tested on: IL-2; experiment: IL-2 mRNA expression in anti-CD3 activated splenocytes, RT-PCR; assay type: cell-based, mouse
Protocol: as §1, §2

[7] = tested on: rat mast cell (RBL-2H3); experiment: β-hexosaminidase assay (mast cell degranulation); assay type: cell-based
Protocol: FIG. 10 represents experimental results of β-hexosaminidase assay for hirsutanonol. The β-hexosaminidase (beta-hex) assay was performed according to the standard protocol of RBL-2H3 cell line. Suitable supernatant was collected and beta-hex activity was measured by incubating with a beta-hex substrate (p-nitrophenyl N-acetyl-beta-D-glucosaminide; Sigma) colored at 405 nm by cutting.
For testing the degranulation in rat mast cell (RBL-2H3) by hirsutanonol, β-hexosaminidase assay was carried out. β-hexosaminidase assay allows us to measure the activity and degranulation of mast cells.

[8] = tested on: BSA (bovine serum albumin); experiment: BSA degradation test (anti-oxidative activity, Cu2+/H2O2); assay type: biochemical
Protocol: The hydroxyl radical-mediated oxidation experiments were carried out by metal-catalyzed reactions. BSA (bovine serum albumin) was dissolved in 150 mM phosphate buffer (pH 7.3) to a final concentration of 0.5 mg/ml. […] 50 μg/ml of ascorbic acid was directly dissolved in 1×PBS and served as a control (an anti-oxidant). After incubation in an open tube, the reaction was kept to stand in a 37° C. shaking water bath. Each experimental group was loaded on 10% SDS-PAGE and stained with 0.01% Coomassie blue.
50 μg of BSA (Sigma) was added to 37.5 mM phosphate buffers (pH 7.3) containing 100 μM Cu^2+, 2.5 mM H2O2 and various amounts of hirsutanonol (1, 50, 100/200 μg/ml), and incubated at 37° C. for 2 hrs. Vitamin C (50 μg/ml) was served as a positive control. The reaction mixture was separated on 10% SDS gel and the protein bands were stained with 0.01% Coomassie blue.
Evaluation of anti-oxidative activity was preformed according to a BSA (bovine serum albumin) degradation test. BSA degradation test is a method to verify a capacity of an anti-oxidative compound which protects proteins or enzymes from damage by reactive oxygen species (ROS) using a metal ion-catalyzed reaction. […] The reaction mixture was electrophoresized on 10% SDS-PAGE (SDS-polyacrylamide gel).
To examine anti-oxidative activity of hirsutanonol, the removal of radical produced from H2O2/Cu^2+ was measured.

[9] = tested on: IL-13; experiment: IL-13 mRNA expression in anti-CD3 activated splenocytes, RT-PCR; assay type: cell-based, mouse
Protocol: as §1, §2

[10] = Solubility in water on preparing the stock solution; conditions: stock solution preparation
Excerpt: The final concentration of DMSO was adjusted to not more than 0.1% so as to maximally exclude the interference of the solvent. […] The prepared stock solutions were stored and then used after dilution to the suitable concentration.

Q: Which “inhibitory activity on IL-10 mRNA expression” value ([1]; 50 μg/ml or 100 μg/ml) does the source give for O=C(CCc1ccc(O)c(O)c1)CC(O)CCc1ccc(O)c(O)c1 (stereo not drawn) [hirsutanonol] here?
A: significant inhibitory activity

Q: What about the “inhibitory effect on IL-10 mRNA expression compared to CsA” value ([1]; 100 μg/ml, CsA 50 nM) of the same molecule?
A: inhibitory effect equal to CsA

Q: What about the “inhibitory activity on IL-4 mRNA expression” value ([2]; 50 μg/ml or 100 μg/ml) of the same molecule?
A: significant inhibitory activity

Q: And the “inhibitory effect on IL-4 mRNA expression compared to CsA” value ([2]; 100 μg/ml, CsA 50 nM)?
A: inhibitory effect equal to CsA

Q: What about the “inhibitory effect on IL-2 expression compared to CsA” value ([3]; 50 μg/ml or 100 μg/ml, CsA 50 nM, 72 hrs) of the same molecule?
A: much higher than that of CsA

Q: What about the “inhibition effect on IL-2 secretion” value ([3]; 50 μg/ml, without cytotoxicity) of the same molecule?
A: remarkably exhibited

Q: What about the “inhibitory activity on CD25/CD69 expression compared to basal and CsA” value [4] of the same molecule?
A: excellent inhibitory activity

Q: And the “concentration exhibiting inhibitory effects on cell proliferation” value [5]?
A: over 50 μg/ml

Q: And the “inhibitory activity on IL-2 mRNA expression” value ([6]; 50 μg/ml or 100 μg/ml)?
A: significant inhibitory activity

Q: What about the “inhibitory effect on IL-2 mRNA expression compared to CsA” value ([6]; 100 μg/ml, CsA 50 nM) of the same molecule?
A: inhibitory effect equal to CsA

Q: What about the “activity level of β-hexosaminidase” value ([7]; 100 μg/ml) of the same molecule?
A: maximally inhibited

Q: What about the “inhibitory capability compared to CsA” value ([7]; β-hexosaminidase) of the same molecule?
A: 20 fold

Q: What about the BSA protection effect ([8]; hirsutanonol 100 μg/ml) of the same molecule?
A: significantly exhibited BSA protection effect

Q: What about the “activity to protect BSA” value ([8]; hirsutanonol 1, 50, 100/200 μg/ml, Cu2+ 100 μM, H2O2 2.5 mM) of the same molecule?
A: increased in a concentration-dependent manner

Q: And the “BSA protection effect compared to Vitamin C” value ([8]; hirsutanonol, Vitamin C 50 μg/ml positive control)?
A: lower than that of Vitamin C

Q: What about the “inhibitory activity on IL-13 mRNA expression” value ([9]; 50 μg/ml or 100 μg/ml) of the same molecule?
A: significant inhibitory activity

Q: And the “inhibitory effect on IL-13 mRNA expression compared to CsA” value ([9]; 100 μg/ml, CsA 50 nM)?
A: inhibitory effect equal to CsA

Q: With O=C(CCc1ccc(O)c(O)c1)C[C@H](CCc1ccc(O)c(O)c1)O[C@@H]1OC[C@@H](O)[C@H](O)[C@H]1O [oregonin] as the molecule, how does the solubility in water [10] read?
A: feasibly dissolved in water
